Data on 20 compounds can be found in patent publication US11485701B2, “Insect repellent compounds and compositions, and methods thereof” (Iowa State University Research Foundation, Inc., priority 2016, dated 2022).

Experiment [1] relates to Northern house mosquitoes (Culex pipiens). Put plainly: Short-term spatial repellency, static air repellency chamber. The class given is in vivo. The conditions noted are these: for pest or weed control at 0.5 %: Culex pipiens, filter paper, air-dried 15 min. The procedure: (§1) Northern house mosquitoes (Culex pipiens), a primary carrier of West Nile virus in eastern North America, were obtained from an established colony in the Medical Entomology Laboratory in the Department of Entomology at Iowa State University of Science and Technology, Ames Iowa. Mosquito rearing was performed by established protocols that are maintained by the Medical Entomology Laboratory. Repellency bioassays were performed with adult female mosquitoes that emerged 5-7 days previously. […] Mosquitoes, prior to testing, were held at 27° C., 80% relative humidity, and on a 16:8 hr light:dark photoperiod.
Repellency bioassays were performed using a static air repellency chamber, which has been described in various publications by the Pesticide Toxicology Laboratory at Iowa State University of Science and Technology, Ames, Iowa Briefly, a 9-cm×60-cm glass tube was used to monitor the distribution of mosquitoes at 15 min, 30 min, 60 min, 90 min, 120 min, and 150 min after introducing mosquitoes into the static air repellency chamber. […] One end of the spatial chamber contained a treated filter paper, whereas the other (untreated) end of the spatial chamber was not treated with compound. Controls contained filter papers treated with acetone, the solvent used to make the 0.5% solutions. Each end of the repellency chamber was secured with a 100-mm Petri dish using celluloid tape. After securing the petri dishes with corresponding treated or untreated filter papers to the spatial chamber, mosquitoes were anesthetized with carbon dioxide, and approximately 20 female mosquitoes were placed into each repellency chamber for one replicate. The opening of the spatial repellency chamber was secured with celluloid tape to prevent their escape. Chambers were oriented in opposite directions from the previous replicate to account for any directional effect. Four replicates were performed for data analysis for both the control and treatment groups.
Data for spatial repellency, the percentage repellency, is reported at each of the respective time points in the figures and tables mentioned below. The percentage spatial repellency is the examination of the distribution of mosquitoes and is calculated using the following equation: […]

The test system is the same in experiment [2]. Put plainly: Long-term spatial repellency, static air repellency chamber, filter papers air-dried 5 hours. The class given is in vivo. The following applies: air-dried 5 hours; for pest or weed control at 0.5 %: Culex pipiens, 1 mL of 0.5% solution in acetone. On the procedure: as §1, with “were” for “emerged”, “post-emergent.” for “previously.”
Repellency bioassays were performed using a static air repellency chamber, which has been described in various publications by the Pesticide Toxicology Laboratory at Iowa State University of Science and Technology, Ames, Iowa Briefly, a 9-cm×60-cm glass tube was used to monitor the distribution of mosquitoes at 15 min, 30 min, 60 min, 90 min, 120 min, and 150 min after introducing mosquitoes into the static air repellency chamber. Treated filter papers were treated with 1 mL of 0.5% solution in acetone of the terpenoid analogs created in the lab and were exposed to ambient air for 5 hours before they were introduced into the spatial chamber for testing. This is a slight modification of the method described in Example 2, so as to evaluate the residual repellent character of these compounds on a treated surface after 5 hours. One end of the spatial chamber contained a treated filter paper, whereas the other (untreated) end of the spatial chamber was not treated with compound. Controls contained filter papers treated with acetone, the solvent used to make the 0.5% solutions. Each end of the repellency chamber was secured with a 100-mm Petri dish using celluloid tape. After securing the petri dishes with corresponding treated or untreated filter papers to the spatial chamber, mosquitoes were anesthetized with carbon dioxide, and approximately 20 female mosquitoes were placed into each repellency chamber for one replicate. The opening of the spatial repellency chamber was secured with celluloid tape to prevent their escape. Chambers were oriented in opposite directions from the previous replicate to account for any directional effect. Four replicates were performed for data analysis for both the control and treatment groups.
Data for spatial repellency, the percentage repellency, is reported at each of the respective time points in the figures and tables mentioned below in this disclosure. The percentage spatial repellency is the examination of the distribution of mosquitoes and is calculated using the following equation: […]

[3] abbreviates: 0.25 h, 1 mL of 0.5% solution in acetone, 15 min after introduction, read-out: Short-term Percentage repellency 15 min.
Setting [4] is: 1.5 h, 1 mL of 0.5% solution in acetone, 90 min, read-out: Short-term Percentage repellency 90 min.
Setting [5] is: 2.5 h, 1 mL of 0.5% solution in acetone, 150 min, read-out: Short-term Percentage repellency 150 min.
[6] abbreviates: 0.25 h, 15 min, read-out: Long-term Percentage repellency 15 min.
[7] abbreviates: 1.5 h, 90 min, read-out: Long-term Percentage repellency 90 min.
Where [8] appears, read: 2.5 h, 150 min, read-out: Long-term Percentage repellency 150 min.

SMILES strings stand for the structures. Structures can show the parent of a compound that is named as a salt.

Consider `C#CCOC(=O)CC(C)CCC=C(C)C` (stereo not drawn) [Compound 1060D, propargyl citronellate], for which the pest or weed control at 0.5 % amounted to 60% in experiment [1] (setting [3]); 72.5% in experiment [1] (setting [4]); 70% in experiment [1] (setting [5]); 15% in experiment [2] (setting [6]); 62.5% in experiment [2] (setting [7]); 77.5% in experiment [2] (setting [8]).

With `CC(C)=CCCC(C)CCOC(=O)C1(C)CCC1` (stereo not drawn) [Compound 2106, citronellyl 1-methylcyclobutanecarboxylate], the pest or weed control at 0.5 % was determined as 30% in experiment [1] (setting [3]); 60% in experiment [1] (setting [4]); 67.5% in experiment [1] (setting [5]); 15% in experiment [2] (setting [6]); 10% in experiment [2] (setting [7]); 15% in experiment [2] (setting [8]).

For the compound `CCN(CC)C(=O)c1cccc(C)c1` [N,N-diethyl-meta-toluamide (DEET), N,N-diethyl-meta-toluamide, reference compound], the pest or weed control at 0.5 % worked out at 20% in experiment [1] (setting [3]); 50% in experiment [1] (setting [4]); 56.7% in experiment [1] (setting [5]); 32.5% in experiment [2] (setting [6]); 32.5% in experiment [2] (setting [7]); 45% in experiment [2] (setting [8]).

Regarding `Cc1ccc(C(C)C)c(OC(=O)C2CC2)c1` [Compound 1055A, thymol cyclopropanecarboxylate], the “Short-term spatial repellency, in words” value in experiment [1] (1 mL of 0.5% solution in acetone) is “very effective spatial repellent”. In addition, the “Short-term percentage repellency 30 min” value in experiment [1] (1 mL of 0.5% solution in acetone, 30 minutes) is listed as 58%. The pest or weed control at 0.5 % in experiment [1] (setting [3]) is -10%; in experiment [1] (setting [4]) it was 87.5%; in experiment [1] (setting [5]) it was 95%; in experiment [2] (setting [6]) it was 0%; in experiment [2] (setting [7]), 32.5%; in experiment [2] (setting [8]), 52.5%.

Regarding `CC(C)=CCCC(C)CCO` (stereo not drawn) [citronellol, reference compound], the pest or weed control at 0.5 % in experiment [1] (setting [3]) amounted to 32.5%; in experiment [1] (setting [4]) it was 80%; in experiment [1] (setting [5]), 87.5%; in experiment [2] (setting [6]), 30%; in experiment [2] (setting [7]) it was 25%; in experiment [2] (setting [8]), 25%.

Take `CC(C)=CCCC(C)CCOC(=O)C1CCCC1` (stereo not drawn) [Compound 2119, citronellyl cyclopentanecarboxylate]: the pest or weed control at 0.5 % was -1.25% in experiment [1] (setting [3]); 33.8% in experiment [1] (setting [4]); 52.5% in experiment [1] (setting [5]); 20% in experiment [2] (setting [6]); 55% in experiment [2] (setting [7]); 45% in experiment [2] (setting [8]).

Regarding `CC(C)=CCC/C(C)=C/COC(=O)C1CC1` [Compound 2023A, geranyl cyclopropanecarboxylate], the pest or weed control at 0.5 % in experiment [1] (setting [3]) is 45%; in experiment [1] (setting [4]) it was 42.5%; in experiment [1] (setting [5]), 45%; in experiment [2] (setting [6]) it was 45%; in experiment [2] (setting [7]) it was 42.5%; in experiment [2] (setting [8]) it was 45%. Further, the “Long-term repellency, in words” value in experiment [2] (0.5% solution) is recorded as “much greater than DEET”. The “Long-term percentage repellency 60 min” value in experiment [2] (0.5% solution, 60 minutes) is 47.5%.

As to `C=CC(C)(C)OC(=O)CC(C)CCC=C(C)C` (stereo not drawn) [Compound 2170, tert-prenyl citronellate], the pest or weed control at 0.5 % in experiment [1] (setting [3]) is 80%; in experiment [1] (setting [4]) it was 92.5%; in experiment [1] (setting [5]), 82.5%; in experiment [2] (setting [6]), 2.5%; in experiment [2] (setting [7]) it was 7.5%; in experiment [2] (setting [8]) it was -2.5%.

As for `Cc1ccc(C(C)C)c(OC(=O)C2CCCCC2)c1` [Compound 2085, thymyl cyclohexanecarboxylate], the pest or weed control at 0.5 % amounted to 17.5% in experiment [1] (setting [3]); 35% in experiment [1] (setting [4]); 50% in experiment [1] (setting [5]); 17.5% in experiment [2] (setting [6]); 35% in experiment [2] (setting [7]); 50% in experiment [2] (setting [8]).

`Cc1ccc(C(C)C)cc1OC=O` [Compound 1107B, carvacryl formate]: the figures for the pest or weed control at 0.5 % in experiment [2] (setting [6]), in experiment [2] (setting [7]) and in experiment [2] (setting [8]) were 30%, 37.5% and 42.5%, respectively.

Turning to `C=C(C)C1CC=C(COC(=O)C2CCC2)CC1` (stereo not drawn) [Compound 2033, perillyl cyclobutanecarboxylate], the pest or weed control at 0.5 % in experiment [2] (setting [6]) came out at 27.5%.

For the compound `CC(C)=CCCC(C)CC(=O)OCCO` (stereo not drawn) [Compound 1052S3, 2-hydroxyethyl citronellate], the pest or weed control at 0.5 % turned out to be 37.5% in experiment [2] (setting [6]), 65% in experiment [2] (setting [7]) and 75% in experiment [2] (setting [8]).

Regarding `CC(C)=CCCC(C)CCOC(=O)C(C)(C)F` (stereo not drawn) [Compound 2208, citronellyl 2-fluoroisobutyrate], the pest or weed control at 0.5 % came to 37.5% in experiment [1] (setting [3]), 75% in experiment [1] (setting [4]) and 77.5% in experiment [1] (setting [5]).

Take `Cc1cc(OC(=O)C2CC2)c(C(C)C)cc1[N+](=O)[O-]` [Compound 1066B, 4-nitrothymyl cyclopropanecarboxylate]: the values for the pest or weed control at 0.5 % in experiment [1] (setting [3]), in experiment [1] (setting [4]) and in experiment [1] (setting [5]) were 37.5%, 57.5% and 70%, respectively.

For the compound `CC(C)=CCCC(C)CC(=O)OCC1(C)COC1` (stereo not drawn) [Compound 3070, (3-methyloxetan-3-yl) methyl citronellate], the pest or weed control at 0.5 % stood at 15% in experiment [1] (setting [3]), 42.5% in experiment [1] (setting [4]) and 32.5% in experiment [1] (setting [5]).

For the compound `CC(C)=CCCC(C)CCOC(=O)c1cccs1` (stereo not drawn) [Compound 2180, Citronellyl thiophene-2-carboxylate], the results for the pest or weed control at 0.5 % in experiment [1] (setting [3]), in experiment [1] (setting [4]) and in experiment [1] (setting [5]) were 0%, 37.5% and 45%, respectively.

For the compound `CC(C)=CCC/C(C)=C/COC(=O)CC(C)C` [Compound 2255A, geranyl isovalerate], the pest or weed control at 0.5 % is 35% in experiment [1] (setting [3]), 60% in experiment [1] (setting [4]) and 52.5% in experiment [1] (setting [5]).

Take `Cc1cc(OC(=O)C(C)C)c(C(C)C)cc1Cl` [Compound 1144B, chlorothymyl isobutyrate]: the pest or weed control at 0.5 % in experiment [1] (setting [3]) was 40%; in experiment [1] (setting [4]) it was 77.5%; in experiment [1] (setting [5]), 87.5%.

Consider `CC(C)=CCC/C(C)=C/C(=O)OCC1CC1` [Compound 2020, cyclopropylmethyl geranate], for which the values for the pest or weed control at 0.5 % in experiment [2] (setting [6]), in experiment [2] (setting [7]) and in experiment [2] (setting [8]) were 40%, 45% and 40%, respectively.

Consider `CC(C)=CCCC(C)CCOC(=O)CC1CC1` (stereo not drawn) [Compound 2229, citronellyl cyclopropylacetate], for which the “Short-term repellency at low concentration, in words” value in experiment [1] (filter paper treated with 0.1%, FIG. 6) is reported as “significant levels of repellency”.
